Article PMC7356761 (Molecules, 2020)
“And” between values parts separate entries of the source, which are not always exact repeats. Identical values can stand only once.

How the values were obtained:
[1] = test system: H441 cells (wild-type EGFR); test: Cellular uptake study, H441; format: cell-based, human; conditions: H441, 4 h incubation
Description: 3.8. Cellular Uptake Studies
Then, the cell culture was incubated in a serum-free medium containing [^125I]10 (3.7 kBq/well) for 4 h. The medium from each well was removed and the cells were washed with 1 mL of ice-cold PBS. Finally, all cell fractions were lysed twice with 0.5 mL of 1 M NaOH aqueous solution. The radioactivity of every fraction was determined by an auto well gamma counter. Total cell protein was determined using the Bicinchoninic Acid (BCA) Protein Assay Kit (Nacalai) protocol, which uses bovine serum albumin as a standard reference. […]. All data were expressed as percent dose per milligram of protein (% dose/mg protein) ± SD.

[2] = Biodistribution in normal ddY mice; format: in vivo, mouse
Description: (§1) Male ddY mice (27–30 g, 6 weeks old) and female BALB/c nu/nu mice (12–17 g, 4 weeks old) were purchased from Japan SLC Inc. (Hamamatsu, Japan). The mice were housed in a cage with free access to food and water maintained at a constant temperature (23–25 °C) with a 12 h light/dark cycle. […] The tumor reached palpable size 2- and 3-weeks post-inoculation. Animal experiments were conducted in accordance with laboratory guidelines for the care and use of animals of Kanazawa University. The animal handling protocol was approved by the Kanazawa University Animal Care Committee (approval number: AP-163766). 3.10. Biodistribution Studies Mice were injected intravenously via the lateral tail vein with a saline solution of [^125I]10 (25 kBq, 100 μL) containing 1% tween-80 and 10% ethanol. The ddY mice were sacrificed at 10 min, 1, 4 and 24 h; meanwhile, the tumor-bearing mice were sacrificed at 1 and 4 h post injection. The selected tissues and organs were collected and weighed and their radioactivity was measured using an auto well gamma counter. […] The mice were sacrificed 1 h after the administration of radiotracer. The biodistribution data are expressed as percent injected dose per gram of tissue (% ID/g) along with the SD.

[3] = Biodistribution in tumor-bearing mice, normal tissues; format: in vivo, mouse
Description: as §1

H1975 tumor = test: Biodistribution in tumor-bearing mice, H1975 tumor; format: in vivo, mouse; conditions: for effect of CO-1686 pretreatment on accumulation in H1975 tumor: excess dose CO-1686 (30 mg/kg i.p.) 1 h prior
Description: as §1

[4] = Blocking (1 h), CO-1686 30 mg/kg i.p. 1 h prior

SMILES: C=CC(=O)Nc1cc([125I])cc(Nc2nc(Nc3ccc(N4CCN(C(C)=O)CC4)cc3OC)ncc2C(F)(F)F)c1 [[^125I]10]
- cell uptake [1]: 8.95 % dose/mg protein
- radiotracer excreted in feces ([2]; 24 h after injection): ~70%
- Biodistribution, Blood ([2]; i.v., 10 min): 1.06 (0.19) % ID/g tissue
- Biodistribution, Bone ([2]; i.v., 10 min): 1.16 (0.21) % ID/g tissue
- Biodistribution, Brain ([2]; i.v., 10 min): 0.11 (0.02) % ID/g tissue
- Biodistribution, Heart ([2]; i.v., 10 min): 3.11 (0.64) % ID/g tissue
- Biodistribution, Kidney ([2]; i.v., 10 min): 7.48 (1.55) % ID/g tissue
- Biodistribution, Large intestine ([2]; i.v., 10 min): 0.57 (0.04) % ID/g tissue
- Biodistribution, Liver ([2]; i.v., 10 min): 26.69 (0.81) % ID/g tissue
- Biodistribution, Lung ([2]; i.v., 10 min): 4.47 (1.39) % ID/g tissue
- Biodistribution, Muscle ([2]; i.v., 10 min): 1.40 (0.16) % ID/g tissue
- Biodistribution, Pancreas ([2]; i.v., 10 min): 1.93 (0.37) % ID/g tissue
- Biodistribution, Small intestine ([2]; i.v., 10 min): 9.46 (2.19) % ID/g tissue
- Biodistribution, Spleen ([2]; i.v., 10 min): 2.14 (0.50) % ID/g tissue
- Biodistribution, Stomach ([2]; i.v., 10 min): 3.52 (2.70) % ID/organ
- Biodistribution, Blood ([2]; i.v., 1 h): 0.49 (0.05) % ID/g tissue
- Biodistribution, Bone ([2]; i.v., 1 h): 0.50 (0.22) % ID/g tissue
- Biodistribution, Brain ([2]; i.v., 1 h): 0.05 (0.02) % ID/g tissue
- Biodistribution, Heart ([2]; i.v., 1 h): 0.79 (0.13) % ID/g tissue
- Biodistribution, Kidney ([2]; i.v., 1 h): 3.76 (0.40) % ID/g tissue
- Biodistribution, Large intestine ([2]; i.v., 1 h): 0.53 (0.08) % ID/g tissue
- Biodistribution, Liver ([2]; i.v., 1 h): 18.57 (2.72) % ID/g tissue
- Biodistribution, Lung ([2]; i.v., 1 h): 1.33 (0.08) % ID/g tissue
- Biodistribution, Muscle ([2]; i.v., 1 h): 0.44 (0.05) % ID/g tissue
- Biodistribution, Pancreas ([2]; i.v., 1 h): 0.99 (0.26) % ID/g tissue
- Biodistribution, Small intestine ([2]; i.v., 1 h): 23.96 (2.18) % ID/g tissue
- Biodistribution, Spleen ([2]; i.v., 1 h): 0.90 (0.17) % ID/g tissue
- Biodistribution, Stomach ([2]; i.v., 1 h): 5.10 (1.18) % ID/organ
- Biodistribution, Blood ([2]; i.v., 4 h): 0.33 (0.07) % ID/g tissue
- Biodistribution, Bone ([2]; i.v., 4 h): 0.29 (0.11) % ID/g tissue
- Biodistribution, Brain ([2]; i.v., 4 h): 0.03 (0.01) % ID/g tissue
- Biodistribution, Heart ([2]; i.v., 4 h): 0.35 (0.09) % ID/g tissue
- Biodistribution, Kidney ([2]; i.v., 4 h): 2.37 (0.17) % ID/g tissue
- Biodistribution, Large intestine ([2]; i.v., 4 h): 53.44 ± 6.73 % ID/g tissue and 53.44 (6.73) % ID/g tissue
- Biodistribution, Liver ([2]; i.v., 4 h): 7.85 (0.92) % ID/g tissue
- Biodistribution, Lung ([2]; i.v., 4 h): 0.86 (0.10) % ID/g tissue
- Biodistribution, Muscle ([2]; i.v., 4 h): 0.13 (0.03) % ID/g tissue
- Biodistribution, Pancreas ([2]; i.v., 4 h): 0.41 (0.03) % ID/g tissue
- Biodistribution, Small intestine ([2]; i.v., 4 h): 9.81 (1.03) % ID/g tissue
- Biodistribution, Spleen ([2]; i.v., 4 h): 0.58 (0.11) % ID/g tissue
- Biodistribution, Stomach ([2]; i.v., 4 h): 1.38 (0.56) % ID/organ
- Biodistribution, Blood ([2]; i.v., 24 h): 0.05 (0.01) % ID/g tissue
- Biodistribution, Bone ([2]; i.v., 24 h): 0.07 (0.05) % ID/g tissue
- Biodistribution, Brain ([2]; i.v., 24 h): 0.01 (0.01) % ID/g tissue
- Biodistribution, Feces ([2]; i.v., 24 h): 69.9 % ID
- Biodistribution, Heart ([2]; i.v., 24 h): 0.09 (0.05) % ID/g tissue
- Biodistribution, Kidney ([2]; i.v., 24 h): 0.25 (0.01) % ID/g tissue
- Biodistribution, Large intestine ([2]; i.v., 24 h): 0.34 (0.08) % ID/g tissue
- Biodistribution, Liver ([2]; i.v., 24 h): 0.80 (0.10) % ID/g tissue
- Biodistribution, Lung ([2]; i.v., 24 h): 0.26 (0.03) % ID/g tissue
- Biodistribution, Muscle ([2]; i.v., 24 h): 0.04 (0.04) % ID/g tissue
- Biodistribution, Pancreas ([2]; i.v., 24 h): 0.10 (0.11) % ID/g tissue
- Biodistribution, Small intestine ([2]; i.v., 24 h): 0.10 (0.01) % ID/g tissue
- Biodistribution, Spleen ([2]; i.v., 24 h): 0.08 (0.04) % ID/g tissue
- Biodistribution, Stomach ([2]; i.v., 24 h): 0.08 (0.02) % ID/organ
- Biodistribution, Urine ([2]; i.v., 24 h): 4.07 (0.83) % ID/g tissue
- Biodistribution, Blood [3, 4]: 1.79 (0.21) % ID/g tissue
- Biodistribution, Bone [3, 4]: 1.07 (0.36) % ID/g tissue
- Biodistribution, Brain [3, 4]: 0.10 (0.02) % ID/g tissue
- Biodistribution, Heart [3, 4]: 1.53 (0.58) % ID/g tissue
- Biodistribution, Kidney [3, 4]: 4.19 (1.28) % ID/g tissue
- Biodistribution, Large intestine [3, 4]: 8.96 (7.48) % ID/g tissue
- Biodistribution, Liver [3, 4]: 21.77 (2.83) % ID/g tissue
- Biodistribution, Lung [3, 4]: 3.40 (0.93) % ID/g tissue
- Biodistribution, Muscle [3, 4]: 1.09 (0.42) % ID/g tissue
- Biodistribution, Pancreas [3, 4]: 3.87 (0.87) % ID/g tissue
- Biodistribution, Small intestine [3, 4]: 60.68 (6.67) % ID/g tissue
- Biodistribution, Spleen [3, 4]: 2.81 (0.77) % ID/g tissue
- Biodistribution, Stomach [3, 4]: 1.44 (0.57) % ID/organ
- Biodistribution, Blood ([3]; i.v., 1 h): 1.74 (0.18) % ID/g tissue
- Biodistribution, Bone ([3]; i.v., 1 h): 0.50 (0.40) % ID/g tissue
- Biodistribution, Brain ([3]; i.v., 1 h): 0.11 (0.08) % ID/g tissue
- Biodistribution, Heart ([3]; i.v., 1 h): 1.46 (0.31) % ID/g tissue
- Biodistribution, Kidney ([3]; i.v., 1 h): 5.26 (1.50) % ID/g tissue
- Biodistribution, Large intestine ([3]; i.v., 1 h): 18.65 (19.88) % ID/g tissue
- Biodistribution, Liver ([3]; i.v., 1 h): 28.12 (5.43) % ID/g tissue
- Biodistribution, Lung ([3]; i.v., 1 h): 4.67 (0.85) % ID/g tissue
- Biodistribution, Muscle ([3]; i.v., 1 h): 0.86 (0.21) % ID/g tissue
- Biodistribution, Pancreas ([3]; i.v., 1 h): 1.99 (0.52) % ID/g tissue
- Biodistribution, Small intestine ([3]; i.v., 1 h): 85.58 (7.68) % ID/g tissue
- Biodistribution, Spleen ([3]; i.v., 1 h): 3.20 (0.62) % ID/g tissue
- Biodistribution, Stomach ([3]; i.v., 1 h): 1.04 (0.36) % ID/organ
- Biodistribution, Blood ([3]; i.v., 4 h): 0.77 (0.07) % ID/g tissue
- Biodistribution, Bone ([3]; i.v., 4 h): 0.24 (0.20) % ID/g tissue
- Biodistribution, Brain ([3]; i.v., 4 h): 0.04 (0.02) % ID/g tissue
- Biodistribution, Heart ([3]; i.v., 4 h): 0.60 (0.67) % ID/g tissue
- Biodistribution, Kidney ([3]; i.v., 4 h): 1.62 (0.26) % ID/g tissue
- Biodistribution, Large intestine ([3]; i.v., 4 h): 144.21 (10.97) % ID/g tissue
- Biodistribution, Liver ([3]; i.v., 4 h): 12.40 (1.06) % ID/g tissue
- Biodistribution, Lung ([3]; i.v., 4 h): 1.02 (0.28) % ID/g tissue
- Biodistribution, Muscle ([3]; i.v., 4 h): 0.27 (0.08) % ID/g tissue
- Biodistribution, Pancreas ([3]; i.v., 4 h): 0.49 (0.12) % ID/g tissue
- Biodistribution, Small intestine ([3]; i.v., 4 h): 9.82 (3.17) % ID/g tissue
- Biodistribution, Spleen ([3]; i.v., 4 h): 0.71 (0.19) % ID/g tissue
- Biodistribution, Stomach ([3]; i.v., 4 h): 0.48 (0.19) % ID/organ
- effect of CO-1686 pretreatment on accumulation in H1975 tumor (H1975 tumor): not inhibited
- effect of CO-1686 pretreatment on accumulation in H1975 tumor (H1975 tumor; listed as [^125I]ICO1686): not reduced
- tumor/blood ratio (H1975 tumor; tumor-bearing mice): approximately 1
- Biodistribution, H1975 tumor (H1975 tumor; tumor-bearing mice, Blocking (1 h), CO-1686 30 mg/kg i.p. 1 h prior): 1.65 (0.64) % ID/g tissue
- Biodistribution, H1975 tumor (H1975 tumor; tumor-bearing mice, i.v., 1 h): 1.77 (0.43) % ID/g tissue
- Biodistribution, H1975 tumor (H1975 tumor; tumor-bearing mice, i.v., 1 h, listed as [^125I]ICO1686): 1.77 ± 0.43 % ID/g tissue
- Biodistribution, H1975 tumor (H1975 tumor; tumor-bearing mice, i.v., 4 h): 0.43 (0.08) % ID/g tissue
